Measured values as given in US20240181080A1, “METHOD FOR CONTROLLING HETEROGENEITY OF VASCULAR ENDOTHELIAL CELLS BY UTILIZING SYMPATHETIC NERVES” (priority 2021, published 2024).
Structures can show the parent of a compound that is named as a salt.

Tests used:
[1] = tested on: L-subtype vascular endothelium; conditions: aged C57BL/6J male mice; prior art; cited from earlier work
hM4Di = target: T1, hM4Di (Homo sapiens, UniProt P08173, A203G/Y113C); conditions: comparator not stated; patent notes structural similarity to clozapine; cited from earlier work
T1 sequence (P08173 1-479 Y113C/A203G): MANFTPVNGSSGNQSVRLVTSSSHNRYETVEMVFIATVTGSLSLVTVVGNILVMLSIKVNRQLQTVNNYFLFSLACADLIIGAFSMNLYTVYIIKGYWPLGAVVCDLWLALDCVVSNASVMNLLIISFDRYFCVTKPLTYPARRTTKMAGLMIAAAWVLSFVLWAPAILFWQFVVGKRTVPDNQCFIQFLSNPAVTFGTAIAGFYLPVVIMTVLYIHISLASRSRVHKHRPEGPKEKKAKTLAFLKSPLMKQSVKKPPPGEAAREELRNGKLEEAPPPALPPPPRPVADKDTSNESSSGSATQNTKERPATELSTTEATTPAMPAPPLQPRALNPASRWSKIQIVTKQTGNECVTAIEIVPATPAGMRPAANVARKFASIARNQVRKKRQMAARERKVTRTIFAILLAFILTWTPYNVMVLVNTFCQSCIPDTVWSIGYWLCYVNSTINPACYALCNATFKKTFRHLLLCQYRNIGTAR

hM3Dq = hM3Dq (Homo sapiens, UniProt P20309, A239G/Y149C); conditions: comparator not stated; patent notes structural similarity to clozapine; cited from earlier work
Chain of hM3Dq (P20309 whole entry Y149C/A239G): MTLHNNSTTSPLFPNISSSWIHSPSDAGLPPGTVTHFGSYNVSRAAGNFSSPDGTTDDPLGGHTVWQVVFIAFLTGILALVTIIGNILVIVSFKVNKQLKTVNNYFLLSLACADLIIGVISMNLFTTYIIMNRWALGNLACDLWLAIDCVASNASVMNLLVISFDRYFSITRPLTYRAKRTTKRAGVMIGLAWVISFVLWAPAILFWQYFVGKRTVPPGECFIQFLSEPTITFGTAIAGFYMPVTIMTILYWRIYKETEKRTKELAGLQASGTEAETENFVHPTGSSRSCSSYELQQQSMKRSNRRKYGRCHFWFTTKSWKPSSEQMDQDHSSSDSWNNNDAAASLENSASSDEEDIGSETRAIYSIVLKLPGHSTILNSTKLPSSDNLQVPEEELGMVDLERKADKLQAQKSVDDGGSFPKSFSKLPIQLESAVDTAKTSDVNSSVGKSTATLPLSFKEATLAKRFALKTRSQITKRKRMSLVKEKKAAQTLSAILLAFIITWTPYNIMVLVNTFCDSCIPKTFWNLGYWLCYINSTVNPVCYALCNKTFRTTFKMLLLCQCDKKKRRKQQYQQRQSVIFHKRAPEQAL

[2] = tested on: H-subtype bone vascular endothelial cells; assay: Example 1: fluorescence microscopy (CD31, EMCN) of bone vascular endothelial cells at the femoral epiphyseal end, after intraosseous hM3Dq virus and CNO injection; type: in vivo, TH-Cre transgenic mouse; conditions: hM3Dq side vs mCherry control side; CNO 1 mg/kg every 48 h for 4 weeks
Procedure: A TH-Cre transgenic mouse aged 4 weeks was selected and anesthetized, and then the skin and muscle on the femur of the mouse were carefully parted. A hole was made in the femur using a small needle to reach the marrow cavity. Using a microsyringe, 1 μL of pAAV-hSyn-DIO-hM3D(Gq)-mCherry with a viral titer of about […] was slowly injected into the long bone marrow cavity of the TH-Cre mouse on one side of the femur in the lower limb through the small hole, serving as an experimental group (recorded as hM3Dq); on the other side, pAAV-hSyn-DIO-mCherry was injected, serving as a control group (recorded as mCherry). […]
After recovery of the mouse and 6 weeks of expression of the gene carried by the virus, CNO was injected (at a dose to achieve a concentration of 1 mg/kg in the mouse) every 48 h for 4 consecutive weeks. […] Data were expressed as (Means±S.E.M.); P<0.05 was considered a significant difference.
CD31 is marked with green fluorescence, and EMCN is marked with red fluorescence; both are markers for H-subtype bone vascular endothelium. The stronger the fluorescence intensity, the more complete the vascular morphology, indicating greater expression of CD31 and EMCN, i.e., the higher number of the H-subtype bone vascular endothelial cells. […]

[3] = Example 2: microCT of the trabecular bone at the femoral epiphyseal end, after intraosseous hM4Di virus and CNO injection; type: in vivo, TH-Cre transgenic mouse; conditions: CNO 1 mg/kg every 48 h for 4 weeks
[4] = tested on: H-subtype bone vascular endothelial cells; assay: Example 2: fluorescence microscopy (CD31, EMCN) of bone vascular endothelial cells at the femoral epiphyseal end, after intraosseous hM4Di virus and CNO injection; type: in vivo, TH-Cre transgenic mouse; conditions: hM4Di side vs mCherry control side; CNO 1 mg/kg every 48 h for 4 weeks
[5] = Example 1: microCT of the trabecular bone at the femoral epiphyseal end, after intraosseous hM3Dq virus and CNO injection; type: in vivo, TH-Cre transgenic mouse; conditions: CNO 1 mg/kg every 48 h for 4 weeks

## CC(=O)N(O)CCCCCNC(=O)CCC(=O)N(O)CCCCCNC(=O)CCC(=O)N(O)CCCCCN [deferoxamine mesylate]
[1]
  bone mineral density: increasing
  reverse transformation of L-subtype vascular endothelium into H-subtype vascular endothelium: promotes

## CN1CCN(C2=Nc3ccccc3Nc3ccccc32)CC1 [Deschloroclozapine]
hM4Di
  affinity for hM4Di: higher
hM3Dq
  affinity for hM3Dq: higher

## C[N+]1([O-])CCN(C2=Nc3cc(Cl)ccc3Nc3ccccc32)CC1 [CNO, Clozapine N-oxide]
[2]
  number of the H-subtype bone vascular endothelial cells near the long bone growth plate: increased
  sympathetic nerve activity: activated
[3]
  bone mass of the trabecular bone: decrease
[4]
  number of the H-subtype bone vascular endothelial cells: reduced
  sympathetic nerve activity: inhibited
[5]
  bone mass of the trabecular bone: rise
